According to patent US20160279236A1, “USE OF RAPAMYCIN AS VACCINE ADJUVANT AND PREPARATION METHOD THEREFOR” (INSTITUT PASTEUR OF SHANGHAI, CHINESE ACADEMY OF SCIENCES, priority 2013, published 2016):
Entries after “also recorded” stand apart in the source; their conditions may differ.

Legend:
[1] = test system: HBsAg-specific antibody titers; experiment: HBsAg homologous prime-boost immunization with adjuvants; assay type: in vivo, C57BL6 mice
Method: HBsAg (5 μg/mouse) was respectively mixed with the following adjuvants or adjuvant combinations: rapamycin (100 μg/mouse)+MPL (10 μg/mouse), MPL (10 μg/mouse), rapamycin (100 μg/mouse) or Alum (200 μg/mouse)+MPL (10 μg/mouse) to immunize (primary immunization) C57BL6 mice. After 4 weeks, each group of mice was boosted according to the same program as the primary immunization. The mice were killed after two weeks, and serum was prepared for determining the content of HBsAg-specific IgG1, IgG2b and IgG2c.

[2] = test system: HBsAg-specific antibody and T cell responses; experiment: HBsAg VLP immunization of mice with adjuvants: antibody titers and Elispot T cell responses; assay type: in vivo, C57BL/6 mice
Method: Virus-like particles (VLP) consisting of (HBV) outer membrane protein antigens is one of the few successful recombinant vaccines clinically used. Aluminum adjuvant (Alum) can only enhance the immune response of VLP in health populations, while it is of limited effects in the elderly people and patients with renal dysfunction. […] In order to further analyze the adjuvant activity of rapamycin, C57BL/6 mice were immunized by the inventors using HBsAg VLP (5 μg/mouse) (Shanghai Yemin Biotechnology Co., Ltd., Item number YM-101) as antigen in mixture with Alum (200 μg/mouse), Alum (200 μg/mouse)+MPL (10 μg/mouse), MPL (10 μg/mouse)+rapamycin (100 μg/mouse) respectively, and was immunized with HBsAg (without MPL or rapamycin) 3 weeks after the primary immunization. The mice were killed 2 weeks after the secondary immunization, and blood was taken to determine the content of HBsAg-specific IgG1, IgG2b, IgG2c. To test HBsAg-specific T cell responses, the inventors have determined HBsAg-specific induced Th1, Th17 and Th2 responses by Elispot (Elispot Assay).
The specific operations are listed as follows: spleen cells were inoculated at 5×10^5 cells per-well into Elispot 96-wells plate of IFNγ, IL-17 or IL-4, and treated or untreated (control) with HBsAg (10 μg/ml) or CD8 peptides (10 μg/ml, […], VWLSVIWM, China Peptides Co., LTD., Shanghai), incubated under 37° C., 5% CO2 for two days. The cells and supernatants were removed. The plates were washed with PBST for 5 times, then incubated with 50 μl of 2 μg/ml biotin-coupled IFNγ (ebioscience, cat No: 13-7312), IL-17 (ebioscience, cat No: 13-7177) or IL-4 (Mabtech, cat No: 3311-6-250) detecting antibody under 37° C. for 2 hours, washed with PBST for 5 times, then incubated with 100 μl of 1000-fold diluted Streptavidin-alkaline phosphatase (Mabtech, cat No: 3310-10) under 37° C. for 1 hour. After this incubation, plates washed with PBST for 3 times, and then washed with PBS for two times. 100 μl of NBT/CPIT substrate (Mabtech, cat No: 3650-10) was added and incubated at room temperature for 0.5 hour. Plates were washed with deionized water for 3 times, and then naturally dried in darkness. The numbers of positive spots was calculated with Elispot Reader, and then statistically analyzed.

[3] = test system: OVA-specific T cell responses and antibody responses; experiment: Ovalbumin immunization of mice with adjuvants: OVA-specific T cell and antibody responses; assay type: in vivo
Method: 6-8 weeks aged mice were primarily immunized by the inventors using intraperitoneal injection method, wherein Ovalbumin (10 μg/mouse) was used as antigen and PBS (negative control), MPL (10 μg/mouse, positive control), rapamycin (100 μg/mouse), rapamycin (100 μg/mouse)+MPL (10 μg/mouse) as adjuvant respectively, and were immunized again with ovalbumin (10 μg/mouse, without adjuvant) at 3 weeks. […] After 48 hours, enzyme linked immunosorbent assay (ELISA) was used to determine the content of IFNγ in the supernatant.

[4] = test system: immune response against HCV outer membrane protein E2; experiment: HCV E2 protein immunization with adjuvants: T cell and antibody responses; assay type: in vivo, C57BL/6 mice; details: E2 protein 20 μg/mouse; Alum 200 μg, MPL 10 μg, rapamycin 100 μg per mouse; IFNγ ELISA of E2-stimulated spleen cells, FIG. 7A
Method: C57BL/6 mice were immunized using purified E2 protein (20 μg/mouse, bought from eEnzyme company, Cat No. HCV-E21b) as antigen in mixture with Alum (200 μg/mouse), MPL (10 μg/mouse), rapamycin (100 μg/mouse), MPL (10 µg/mouse)+rapamycin (100 μg/mouse) respectively, and after 4 weeks, were boosted by the same antigen+adjuvant program. 8 weeks after the secondary immunization, mice were immunized for one time with E2 protein (without MPL or rapamycin) (5 μg/mouse), and the mice were killed after 2 weeks. Spleen cells were taken to determine immune response of T cells (FIG. 7A), and serum was taken to determine antibody titers (FIG. 7B). The spleen cells (5×10^5 cells) were stimulated with 10 μg/ml of E2 protein. After 48 hours, the content of IFNγ in the supernatant was determined by enzyme linked immunosorbent assay (ELISA). […] Meanwhile, antibody response induced by the combination of rapamycin and MPL was also the best, which was better than MPL or alum alone (FIG. 7B).

BMDCs = experiment: IL-12 expression (ELISA) in BMDCs stimulated by Toll-like receptor agonists with or without rapamycin; assay type: cell-based, mouse; details: rapamycin 100 nM 1 hour
Method: The present inventors have firstly studied the influence of rapamycin on IL-12 expression induced by a variety of Toll-like receptors agonist including polyI:C by in vitro experiments. Dendritic cells differentiated from mouse bone marrow cells (BMDCs differentiated for 7 days with 20 ng/ml GM-CSF and 10 ng/ml IL-4) were pre-treated with or without rapamycin (100 nM) for 1 hour, and stimulated by LPS (100 ng/ml), MPL (1 μg/ml), R848 (1 μg/ml) and polyI:C (20 μg/ml) respectively for 24 hours, and cell culture media were taken to determine the content of IL-12 by ELISA.

[5] = after immunized for two times, HBsAg 5 μg/mouse, rapamycin 100 μg/mouse, serum two weeks after boost
[6] = blood 1 week after secondary immunization, single adjuvants vs negative control, combination vs MPL alone

CO[C@H]1C[C@@H]2CC[C@@H](C)[C@@](O)(O2)C(=O)C(=O)N2CCCC[C@H]2C(=O)O[C@H]([C@H](C)C[C@@H]2CC[C@@H](O)[C@H](OC)C2)CC(=O)[C@H](C)/C=C(\C)[C@@H](O)[C@@H](OC)C(=O)[C@H](C)C[C@H](C)/C=C/C=C/C=C/1C [rapamycin]
HBsAg-induced antibody titers, IgG1 [1, 5]: significantly enhance | HBsAg-induced antibody titers, IgG2b [1, 5]: significantly enhance | HBsAg-induced antibody titers, IgG2c [1, 5]: significantly enhance | adjuvant activity of MPL ([1]; homologous prime-boost immunization program, FIG. 6): remarkably enhance | HBsAg-specific antigen response enhanced by MPL ([2]; FIG. 4a): increased | HBsAg-specific CD8+ T cell responses ([2]; IFNγ Elispot of spleen cells, CD8 peptides, compared with MPL+Alum immunized group): increased | HBsAg-specific CD4+ T cell responses ([2]; IFNγ Elispot of spleen cells, compared with MPL+Alum immunized group): increased | HBsAg-specific Th2 cell response ([2]; IL-4 Elispot, compared with MPL+Alum immunized group): increased | HBsAg-specific Th17 cell response ([2]; IL-17 Elispot, compared with MPL+Alum immunized group): increased | OVA-specific IgG1 antibody titers [3, 6]: relatively moderate | OVA-specific IgG2b antibody titers [3, 6]: relatively moderate; also recorded: enhanced | OVA-specific IgG2c antibody titers [3, 6]: relatively moderate; also recorded: enhanced | OVA-specific CD8+ T cell responses ([3]; mice i.p., ovalbumin 10 μg, MPL 10 μg, rapamycin 100 μg per mouse, IFNγ ELISA of splenic cells stimulated with OVA-1, 48 hours): relatively moderate; also recorded: enhanced | OVA-specific CD4+ (Th1) T cell responses ([3]; mice i.p., ovalbumin 10 μg, MPL 10 μg, rapamycin 100 μg per mouse, IFNγ ELISA of splenic cells stimulated with OVA-II, 48 hours): relatively moderate; also recorded: enhanced | immune response of IFN-γ secreting T cells against HCV E2 [4]: inferior effect | IL-12 expression induced by lipopolysaccharide (BMDCs; LPS 100 ng/ml 24 hours): enhance | IL-12 expression induced by MPL (BMDCs; MPL 1 μg/ml 24 hours): enhance; also recorded: effectively enhanced | IL-12 expression induced by R848 (BMDCs; R848 1 μg/ml 24 hours): effectively enhanced | IL-12 expression induced by polyI:C (BMDCs; polyI:C 20 μg/ml 24 hours): effectively enhanced
